Patent US20070027150A1 (priority 2005, published 2007)

Molecular target: His-tagged N-terminal ATP binding domain (amino acid residues 9-236) of HSP90α (Homo sapiens, UniProt P07900)
Assay: HSP90 inhibitor binding potency: TRF competition binding assay
Conditions: Table II; read-out: Hsp90 IC50 Range
Summary of the method: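 Competition against biotinylated radicicol for binding to the His-tagged 9-236 ATP domain of HSP90α: 2 h, room temperature, HEPES/MgCl2/KCl/BSA buffer. Streptavidin capture, then europium-labeled anti-His antibody and enhancement solution; europium counts give IC50.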

IC50 [nM]	SMILES
< 1000	COc1cccc(-c2cc(Cl)ccc2C2CC(=O)c3c(C)nc(N)nc3C2)n1 (stereo not shown) [Compound 251, 2-amino-7-[4-chloro-2-(6-methoxy-pyridin-2-yl)-phenyl]-4-methyl-7,8-dihydro-6H-quinazolin-5-one]
< 1000	COc1ccc(-c2cccc(OC)n2)c(C2CC(=O)c3c(C)nc(N)nc3C2)c1 (stereo not shown) [Compound 252, 2-amino-7-[5-methoxy-2-(6-methoxy-pyridin-2-yl)-phenyl]-4-methyl-7,8-dihydro-6H-quinazolin-5-one]
< 1000	COc1ccc(-c2cccnc2OC)c(C2CC(=O)c3c(C)nc(N)nc3C2)c1 (stereo not shown) [Compound 253, 2-amino-7-[5-methoxy-2-(2-methoxy-pyridin-3-yl)-phenyl]-4-methyl-7,8-dihydro-6H-quinazolin-5-one]
< 1000	COc1ccc(-c2cncc(OC)n2)c(C2CC(=O)c3c(C)nc(N)nc3C2)c1 (stereo not shown) [Compound 254, 2-amino-7-[5-methoxy-2-(6-methoxy-pyrazin-2-yl)-phenyl]-4-methyl-7,8-dihydro-6H-quinazolin-5-one]
< 1000	Cc1nc(N)nc2c1C(=O)CC(c1ccc(F)cc1OC1CCCC1)C2 (stereo not shown) [Compound 255, 2-amino-7-(2-cyclopentyloxy-4-fluoro-phenyl)-4-methyl-7,8-dihydro-6H-quinazolin-5-one]
> 10000	COc1cccc(-c2cc(F)c(C3CC(=O)c4c(C)nc(N)nc4C3)c(F)c2)n1 (stereo not shown) [Compound 256, 2-amino-7-[2,6-difluoro-4-(6-methoxy-pyridin-2-yl)-phenyl]-4-methyl-7,8-dihydro-6H-quinazolin-5-one]
< 1000	COc1ccnc(-c2cc(F)ccc2C2CC(=O)c3c(C)nc(N)nc3C2)n1 (stereo not shown) [Compound 257, 2-amino-7-[4-fluoro-2-(4-methoxy-pyrimidin-2-yl)-phenyl]-4-methyl-7,8-dihydro-6H-quinazolin-5-one]
> 10000	COc1nccc(-c2cc(F)ccc2C2CC(=O)c3c(C)nc(N)nc3C2)n1 (stereo not shown) [Compound 258, 2-amino-7-[4-fluoro-2-(2-methoxy-pyrimidin-4-yl)-phenyl]-4-methyl-7,8-dihydro-6H-quinazolin-5-one]
< 1000	COc1nc(-c2cc(F)ccc2C2CC(=O)c3c(C)nc(N)nc3C2)ncc1C (stereo not shown) [Compound 259, 2-amino-7-[4-fluoro-2-(4-methoxy-5-methyl-pyrimidin-2-yl)-phenyl]-4-methyl-7,8-dihydro-6H-quinazolin-5-one]
1000 to 10000	COc1cccc(-c2cc(F)ccc2[C@H]2CC(=O)c3c(C)nc(N)nc3C2)n1 [Compound 260, (R)-2-amino-7-[4-fluoro-2-(6-methoxy-pyridin-2-yl)-phenyl]-4-methyl-7,8-dihydro-6H-quinazolin-5-one]
< 1000	COc1cccc(-c2cc(F)ccc2[C@@H]2CC(=O)c3c(C)nc(N)nc3C2)n1 [Compound 261, (S)-2-amino-7-[4-fluoro-2-(6-methoxy-pyridin-2-yl)-phenyl]-4-methyl-7,8-dihydro-6H-quinazolin-5-one]
< 1000	Cc1nc(N)nc2c1C(=O)CC(c1ccc(F)cc1OCCC1CC1)C2 (stereo not shown) [Compound 262, 2-amino-7-[2-(2-cyclopropyl-ethoxy)-4-fluoro-phenyl]-4-methyl-7,8-dihydro-6H-quinazolin-5-one]
< 1000	Cc1nc(N)nc2c1C(=O)CC(c1ccc(F)cc1OCC1CCCC1)C2 (stereo not shown) [Compound 263, 2-amino-7-(2-cyclopentylmethoxy-4-fluoro-phenyl)-4-methyl-7,8-dihydro-6H-quinazolin-5-one]
1000 to 10000	Cc1nc(N)nc2c1C(=O)CC(c1ccc(F)cc1-c1cccc(O)n1)C2 (stereo not shown) [Compound 264, 2-amino-7-[4-fluoro-2-(6-hydroxy-pyridin-2-yl)-phenyl]-4-methyl-7,8-dihydro-6H-quinazolin-5-one]
1000 to 10000	Cc1nc(N)nc2c1C(=O)CC(c1ccc(F)cc1OCc1ccccc1)C2 (stereo not shown) [Compound 265, 2-amino-7-(2-benzyloxy-4-fluoro-phenyl)-4-methyl-7,8-dihydro-6H-quinazolin-5-one]
< 1000	CCC(CC)Oc1cc(F)ccc1C1CC(=O)c2c(C)nc(N)nc2C1 (stereo not shown) [Compound 267, 2-amino-7-[2-(1-ethyl-propoxy)-4-fluoro-phenyl]-4-methyl-7,8-dihydro-6H-quinazolin-5-one]
< 1000	Cc1nc(N)nc2c1C(=O)CC(c1ccc(F)cc1OC1CCCC1C)C2 (stereo not shown) [Compound 268, 2-amino-7-[4-fluoro-2-(2-methyl-cyclopentyloxy)-phenyl]-4-methyl-7,8-dihydro-6H-quinazolin-5-one]
1000 to 10000	Cc1nc(N)nc2c1C(=O)CC(c1ccc(F)cc1-c1cnc(N)nc1)C2 (stereo not shown) [Compound 269, 2-amino-7-[2-(2-amino-pyrimidin-5-yl)-4-fluoro-phenyl]-4-methyl-7,8-dihydro-6H-quinazolin-5-one]

IC50 [nM]	SMILES
< 1000	Cc1nc(N)nc2c1C(=O)CC(c1ccc(F)cc1-c1ncc(C(F)(F)F)cn1)C2 (stereo not shown) [Compound 270, 2-amino-7-[4-fluoro-2-(5-trifluoromethyl-pyrimidin-2-yl)-phenyl]-4-methyl-7,8-dihydro-6H-quinazolin-5-one]
< 1000	COc1nc(-c2cc(F)ccc2C2CC(=O)c3c(C)nc(N)nc3C2)ncc1Cl (stereo not shown) [Compound 272, 2-amino-7-[2-(5-chloro-4-methoxy-pyrimidin-2-yl)-4-fluoro-phenyl]-4-methyl-7,8-dihydro-6H-quinazolin-5-one]
< 1000	COc1nc(Cl)ncc1-c1cc(F)ccc1C1CC(=O)c2c(C)nc(N)nc2C1 (stereo not shown) [Compound 273, 2-amino-7-[2-(2-chloro-4-methoxy-pyrimidin-5-yl)-4-fluoro-phenyl]-4-methyl-7,8-dihydro-6H-quinazolin-5-one]
< 1000	COc1nc(-c2cc(F)ccc2[C@H]2CC(=O)c3c(C)nc(N)nc3C2)ncc1C [Compound 274, (R)-2-amino-7-[4-fluoro-2-(4-methoxy-5-methyl-pyrimidin-2-yl)-phenyl]-4-methyl-7,8-dihydro-6H-quinazolin-5-one]
< 1000	COc1nc(-c2cc(F)ccc2[C@@H]2CC(=O)c3c(C)nc(N)nc3C2)ncc1C [Compound 275, (S)-2-amino-7-[4-fluoro-2-(4-methoxy-5-methyl-pyrimidin-2-yl)-phenyl]-4-methyl-7,8-dihydro-6H-quinazolin-5-one]
< 1000	COc1cnc(-c2cc(F)ccc2C2CC(=O)c3c(C)nc(N)nc3C2)nc1OC (stereo not shown) [Compound 276, 2-amino-7-[2-(4,5-dimethoxy-pyrimidin-2-yl)-4-fluoro-phenyl]-4-methyl-7,8-dihydro-6H-quinazolin-5-one]
< 1000	Nc1ncc2c(n1)CC(c1ccc(F)cc1-c1cccnc1F)CC2=O (stereo not shown) [Compound 277, 2-amino-7-[4-fluoro-2-(2-fluoro-pyridin-3-yl)-phenyl]-7,8-dihydro-6H-quinazolin-5-one]
< 1000	COc1ncncc1-c1cc(F)ccc1C1CC(=O)c2c(C)nc(N)nc2C1 (stereo not shown) [Compound 278, 2-amino-7-[4-fluoro-2-(4-methoxy-pyrimidin-5-yl)-phenyl]-4-methyl-7,8-dihydro-6H-quinazolin-5-one]
< 1000	Cc1nc(N)nc2c1C(=O)CC(c1ccc(F)cc1-c1cccc(C(F)(F)F)n1)C2 (stereo not shown) [Compound 279, 2-amino-7-[4-fluoro-2-(6-trifluoromethyl-pyridin-2-yl)-phenyl]-4-methyl-7,8-dihydro-6H-quinazolin-5-one]
1000 to 10000	Cc1nc(N)nc2c1C(=O)CC(c1ccc(F)cc1-c1nccnc1NCCO)C2 (stereo not shown) [Compound 280, 2-amino-7-{4-fluoro-2-[3-(2-hydroxy-ethylamino)-pyrazin-2-yl]-phenyl}-4-methyl-7,8-dihydro-6H-quinazolin-5-one]
< 1000	COc1nccnc1-c1cc(F)ccc1C1CC(=O)c2c(C)nc(N)nc2C1 (stereo not shown) [Compound 281, 2-amino-7-[4-fluoro-2-(3-methoxy-pyrazin-2-yl)-phenyl]-4-methyl-7,8-dihydro-6H-quinazolin-5-one]
< 1000	CCOc1ncncc1-c1cc(F)ccc1C1CC(=O)c2c(C)nc(N)nc2C1 (stereo not shown) [Compound 282, 2-amino-7-[2-(4-ethoxy-pyrimidin-5-yl)-4-fluoro-phenyl]-4-methyl-7,8-dihydro-6H-quinazolin-5-one]
< 1000	COc1cccc(-c2ccc(F)cc2C2CC(=O)c3c(C)nc(N)nc3C2)n1 (stereo not shown) [Compound 283, 2-amino-7-[5-fluoro-2-(6-methoxy-pyridin-2-yl)-phenyl]-4-methyl-7,8-dihydro-6H-quinazolin-5-one]
> 10000	Cc1nc(N)nc2c1C(=O)CC(c1cc(F)ccc1-c1cncnc1)C2 (stereo not shown) [Compound 284, 2-amino-7-(5-fluoro-2-pyrimidin-5-yl-phenyl)-4-methyl-7,8-dihydro-6H-quinazolin-5-one]
< 1000	COc1ncccc1-c1ccc(F)cc1C1CC(=O)c2c(C)nc(N)nc2C1 (stereo not shown) [Compound 285, 2-amino-7-[5-fluoro-2-(2-methoxy-pyridin-3-yl)-phenyl]-4-methyl-7,8-dihydro-6H-quinazolin-5-one]
1000 to 10000	COc1cncc(-c2ccc(F)cc2C2CC(=O)c3c(C)nc(N)nc3C2)n1 (stereo not shown) [Compound 286, 2-amino-7-[5-fluoro-2-(6-methoxy-pyrazin-2-yl)-phenyl]-4-methyl-7,8-dihydro-6H-quinazolin-5-one]
< 1000	COc1nc(-c2cc(F)ccc2[C@@H]2CC(=O)c3c(C)nc(N)nc3C2)cnc1N [Compound 287, (S)-2-amino-7-[2-(5-amino-6-methoxy-pyrazin-2-yl)-4-fluoro-phenyl]-4-methyl-7,8-dihydro-6H-quinazolin-5-one]
< 1000	COc1cnc(-c2cc(F)ccc2[C@@H]2CC(=O)c3c(C)nc(N)nc3C2)nc1OC [Compound 288, (S)-2-amino-7-[2-(4,5-dimethoxy-pyrimidin-2-yl)-4-fluoro-phenyl]-4-methyl-7,8-dihydro-6H-quinazolin-5-one]

SMILES	IC50 [nM]
Cc1nc(N)nc2c1C(=O)CC(c1ccc(F)cc1OCC(C)C)C2 (stereo not shown) [Compound 266, 2-amino-7-(4-fluoro-2-isobutoxy-phenyl)-4-methyl-7,8-dihydro-6H-quinazolin-5-one]	< 1000
